Tests used:
[1] = system: SARS-CoV-2; assay: (§1) Antiviral activity against SARS-CoV-2 infected in human Calu-3 cells assessed as reduction in progeny virus yeild preincubated with cell culture for 1 hr and further infected with virus for 1 hr followed by replacement of medium containing compound measured after 2 days by qRT-PCR analysis; format: functional, organism-based; conditions: Severe acute respiratory syndrome coronavirus 2, Calu-3
[2] = system: SARS-CoV-2; assay: as §1, with “African green monkey Vero” for “human Calu-3”; format: functional, organism-based; conditions: Severe acute respiratory syndrome coronavirus 2, Vero

O=c1cc(-c2ccccc2)oc2cc(O)c(O)c(O)c12 [BAICALEIN]
EC50 [1]: 1.2 µM

O=C(O)[C@H]1O[C@@H](Oc2cc3oc(-c4ccccc4)cc(=O)c3c(O)c2O)[C@H](O)[C@@H](O)[C@@H]1O [BAICALIN]
EC50 [2]: 9 µM

— ChEMBL document CHEMBL5532636 (Eur J Med Chem, 2023)
